PubChem BioAssay (NCI)
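Cells were grown in 96-well plates and exposed to each compound for 48 hours at five concentrations; endpoints were interpolated linearly between bracketing concentrations, or set to the highest concentration if not reached. The concentration for 50% growth inhibition is given as GI50. TGI: total growth inhibition.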

Legend:
Assay in all cases: inhibition of tumour cell growth, NCI panel, 48 h
[1] = system: BT-549 breast
[2] = system: MCF7 breast
[3] = system: MDA-MB-435
[4] = system: DU-145 prostate
[5] = system: MDA-MB-231 breast
[6] = system: LXFL 529 NSCLC
[7] = system: DLD-1 colon
[8] = system: DMS 273 small cell lung
[9] = system: DMS 114 small cell lung

SMILES	GI50 [1]	TGI [1]	GI50 [2]	TGI [2]	GI50 [3]	TGI [3]	GI50 [4]	TGI [4]	GI50 [5]	TGI [5]	GI50 [6]	TGI [6]	TGI [7]	TGI [8]	TGI [9]
c1ccc(COc2ccc(Nc3ncnc4ccc(-c5ccco5)cc34)cc2)cc1	6870 nM	> 25 µM	572 nM	> 13.5 µM	6830 nM	22.3 µM	5740 nM	24.6 µM	5490 nM	13.7 µM	–	–	–	–	–
Cc1nc(N=C(N)N)nc2ccc3ccccc3c12	2670 nM	7.96 µM	441 nM	2.93 µM	1280 nM	2.77 µM	1530 nM	5.31 µM	1250 nM	3.2 µM	–	–	–	–	–
CC(=O)[CH-]C(=O)c1ccccc1.CC(=O)[CH-]C(=O)c1ccccc1.[O-]Cc1cccs1.[O-]Cc1cccs1.[Ti+4]	–	–	–	–	–	–	–	–	–	–	25.3 µM	> 100 µM	–	–	–
COC12c3ccccc3-c3ccccc3C1[C@@H](C(=O)O)[C@H]2C(=O)O (some centres undefined)	–	–	–	> 10 µM	–	> 10 µM	–	> 10 µM	–	> 10 µM	–	–	–	–	–
Cn1cc(-c2ccc3c(c2)ncn3-c2ccc(CC(=O)Nc3cc(C(C)(C)C)on3)cc2)cn1	1490 nM	13.2 µM	1550 nM	> 52 µM	2550 nM	> 100 µM	1370 nM	9.49 µM	1230 nM	3.6 µM	–	–	–	–	–
NCCCNCCCNc1nc2ccccc2c2[nH]c3ccccc3c12	1050 nM	2.4 µM	8.04 nM	1.85 µM	581 nM	2.08 µM	75.6 nM	1.51 µM	142 nM	1.56 µM	–	–	–	–	–
CCN(CC)c1ccc(/C=C/C2=[N+](C)c3ccccc3C2(C)C)cc1	226 nM	1.96 µM	307 nM	18.5 µM	288 nM	4.91 µM	492 nM	19 µM	701 nM	6.48 µM	–	–	–	–	–
S=c1nc(/C=C/c2ccc(Cl)c(Cl)c2)[nH][nH]1	31300 nM	> 100 µM	> 100000 nM	> 100 µM	86700 nM	> 100 µM	> 100000 nM	> 100 µM	79000 nM	> 100 µM	–	–	> 100 µM	> 100 µM	120 nM
CC1(C)CCC(CN2CCN(c3ccc(C(=O)NS(=O)(=O)c4ccc(NCC5CCOCC5)c([N+](=O)[O-])c4)c(Oc4cnc5[nH]ccc5c4)c3)CC2)=C(c2ccc(Cl)cc2)C1	3130 nM	8.66 µM	3160 nM	14.5 µM	2070 nM	5.38 µM	4470 nM	21.3 µM	1780 nM	4 µM	–	–	–	–	–
COc1ccc2c(c1)C(=O)/C(=C/c1ccc(OCC(=O)c3ccc(Cl)cc3)cc1)O2	18400 nM	59.1 µM	28300 nM	> 100 µM	22900 nM	91.8 µM	16400 nM	29.9 µM	17000 nM	89.7 µM	–	–	–	–	–
